Measurements taken from paper PMC7688903 (Frontiers in Microbiology, 2020).
≈ marks a conversion by molar mass, not a printed value. Where a SMILES comes first, the peptide text is derived from it. [ ]: non-standard residue; d: D form. 2Thi = N[C@@H](Cc1cccs1)C(=O)O; Aib = CC(C)(N)C(=O)O

What was measured:
E. coli ATCC 25922 = type: cell-based, Escherichia coli; conditions: ATCC 25922, 20 h
Summary of the method: (§1)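 Inocula were set to 0.5 McFarland and diluted to ~5 × 10^5 CFU/mL (bacteria, MH broth) or 0.5 × 10^3 to 2.5 × 10^3 CFU/mL (yeast, RPMI 1640). Peptide twofold dilutions were added, plates incubated 20 h at 37°C or 48 h at 35°C, then scored by eye.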

P. aeruginosa ATCC 27853 = type: cell-based, Pseudomonas aeruginosa; conditions: ATCC 27853, 20 h
Summary of the method: as §1

[1] = tested on: carbapenem-resistant P. aeruginosa (CRPA) SIPI-012; type: cell-based, Pseudomonas aeruginosa; conditions: carbapenem-resistant (CRPA) SIPI-012, 20 h
Summary of the method: as §1

A. baumannii ATCC 19606 = type: cell-based, Acinetobacter baumannii; conditions: ATCC 19606, 20 h
Summary of the method: as §1

[2] = tested on: carbapenem-resistant A. baumannii (CRAB) SIPI-025; type: cell-based, Acinetobacter baumannii; conditions: carbapenem-resistant (CRAB) SIPI-025, 20 h
Summary of the method: as §1

S. aureus ATCC 25923 = experiment: microbe, parasite or virus in culture; type: cell-based, Staphylococcus aureus; conditions: ATCC 25923, 20 h
Summary of the method: as §1

[3] = tested on: proteases secreted by S. aureus ATCC 25923; experiment: in vitro
Summary of the method: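 Cell-free culture supernatants (overnight, 37°C; MH broth for bacteria, 2% tryptone/2% dextrose for yeast) were centrifuged, adjusted to pH 8.0 and 0.22 μm filtered. Peptides at 0.5 mg/mL were incubated in supernatant 24 h at 37°C; remaining intact peptide measured by RP-HPLC, with peptide-free supernatant as negative control.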

RAW 264.7 cells = experiment: Cell viability assay (MTT); type: cell-based, mouse; conditions: 1–128 μM peptide in DMEM with 4% FBS, 42 h, 595 nm, triplicate
Summary of the method: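 RAW 264.7 cells (1 × 10^4/well, DMEM + 10% FBS) grown overnight to 80% confluency, then exposed to peptides at 1–128 μM in DMEM with 4% FBS for 42 h at 37 °C. MTT read at 595 nm; viability relative to medium-only controls, triplicate, IC50 as 50% loss of viability.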

BALB/c mice = experiment: In vivo acute toxicity, single injection; parameters: species or system mouse; conditions: monitored 24 h
Procedure: Six-week-old mice (approximate weight: 18–20 g, SFP grade) were bred and maintained under specific pathogen-free conditions on a 12 h light/dark cycle. The peptides were dissolved in PBS (pH 7.4) and three mice were used for each dose. As a control, colistin was administered in a similar manner. The mice were monitored for 24 h and mice were weighed at the end of the experiment. The procedure was evaluated and approved by the Ethical Committee of Experimental Animals of the Chia Tai Tianqing Pharmaceutical Group in August 2019.
As summarized in Figure 6, a toxicity score was assigned as follows: no abnormalities = without signs; mild depression, poor motility, purple-black tail, and recovery in 1 h = mild signs; serious depression and poor motility even under stimulation = manifest signs; sudden death within 10 min = died of toxic effects.

CC(C)C[C@H](NC(=O)[C@H](Cc1ccc(O)cc1)NC(=O)[C@H](CCCCN)NC(=O)[C@H](CC(C)C)NC(=O)[C@H](CC(C)C)NC(=O)[C@H](CCCCN)NC(=O)[C@H](CCCCN)NC(=O)[C@H](Cc1ccccc1)NC(=O)[C@H](CC(C)C)NC(=O)[C@H](CCCNC(=N)N)NC(=O)C(C)(C)N)C(=O)N[C@@H](CCCNC(=N)N)C(=O)N[C@@H](CCCCN)C(=O)N[C@@H](Cc1cccs1)C(N)=O [UP09] (H-[Aib]RLFKKLLKYLRK[2Thi]-NH2; N-terminus assumed)
MIC (E. coli ATCC 25922): 2 mg/L (≈ 1.08 µM) | MIC (P. aeruginosa ATCC 27853): 2 mg/L (≈ 1.08 µM) | MIC [1]: 4 mg/L (≈ 2.17 µM) | MIC (A. baumannii ATCC 19606): 2 mg/L (≈ 1.08 µM) | MIC [2]: 2 mg/L (≈ 1.08 µM) | MIC (S. aureus ATCC 25923): 1 mg/L (≈ 0.542 µM) | Percent of remained peptide amount after incubation (%) ([3]; S. aureus ATCC 25923 culture supernatant (MH broth), pH 8.0, 0.22 μm filtered, peptide 0.5 mg/mL, 37°C, 24 h, RP-HPLC): 36.92 ± 3.97 % | IC50 (RAW 264.7 cells): 26.2 ± 1.8 µM | signs of toxicity after intravenous injection (BALB/c mice; single i.v. dose, all tested doses (5, 10, 20 mg/kg), three mice per dose): Mild depression and purple-black tails

CC(C)C[C@H](NC(=O)[C@H](CC(C)C)NC(=O)[C@@H](CCCCN)NC(=O)[C@@H](CCCCN)NC(=O)[C@H](Cc1ccccc1)NC(=O)[C@H](CC(C)C)NC(=O)[C@@H](CCCNC(=N)N)NC(=O)[C@H](N)CCCCN)C(=O)N[C@H](CCCCN)C(=O)N[C@@H](Cc1ccc(O)cc1)C(=O)N[C@@H](CC(C)C)C(=O)N[C@H](CCCNC(=N)N)C(=O)N[C@H](CCCCN)C(=O)N[C@@H](Cc1ccccc1)C(N)=O [DP06] (H-[dK][dR]LF[dK][dK]LL[dK]YL[dR][dK]F-NH2)
MIC (E. coli ATCC 25922): 1 mg/L (≈ 0.532 µM) | MIC (P. aeruginosa ATCC 27853): 1 mg/L (≈ 0.532 µM) | MIC [1]: 8 mg/L (≈ 4.25 µM) | MIC (A. baumannii ATCC 19606): 1 mg/L (≈ 0.532 µM) | MIC [2]: 2 mg/L (≈ 1.06 µM) | MIC (S. aureus ATCC 25923): 0.5 mg/L (≈ 0.266 µM) | remaining at 24 h, 0.5 mg/mL ([3]; Staphylococcus aureus, S. aureus ATCC 25923 culture supernatant, pH 8): 86.4 ± 4.81% | IC50 (RAW 264.7 cells): 48.8 ± 6.97 µM | signs of toxicity after intravenous injection (BALB/c mice; single i.v. dose 5 mg/kg, three mice): sudden death within 1 min of injection | signs of toxicity after intravenous injection (BALB/c mice; single i.v. dose 10 mg/kg, three mice): sudden death within 1 min of injection
